Assay results taken from US20260109763A1, “ANTI-PILRA ANTIBODIES, USES THEREOF, AND RELATED METHODS AND REAGENTS” (DENALI THERAPEUTICS INC., priority 2021, published 2026).

Tested on: PILRA G78 expressing HEK293 cells
Assay: mTOR dependence of anti-PILRA antibody-induced pSTAT3 Y705
Assay type: cell-based, human
Conditions: 2 hours pre-incubation; AZD8055 3.125-50 nM, Torin 1 31.25-500 nM; then 100 nM anti-PILRA mAb 30 mins
Method: To assess if pSTAT3 Y705 induction is mTOR dependent, cells were dosed with mTOR inhibitors Torin 1 (31.25-500 nM) or AZD8055 (3.125-50 nM) for 2 hours before spiking in 100 nM anti-PILRA mAb or isotype control for 30 mins.

For CCC(=O)N1CCN(c2ccc(-n3c(=O)ccc4cnc5ccc(-c6cnc7ccccc7c6)cc5c43)cc2C(F)(F)F)CC1 [Torin 1], the “blocking of anti-PILRA antibody-induced pSTAT3 Y705 by mTOR inhibitor” value was “partially blocked”.

For COc1ccc(-c2ccc3c(N4CCOC[C@@H]4C)nc(N4CCOC[C@@H]4C)nc3n2)cc1CO [AZD8055], the “blocking of anti-PILRA antibody-induced pSTAT3 Y705 by mTOR inhibitor” value was “partially blocked”.
